{
  "source": "patent US20240279236A1",
  "about": "“COMPOUNDS AND METHODS OF TREATING TUBERCULOSIS” (Fimbrion Therapeutics, Inc., priority 2021, published 2024)",
  "note": "pIC50: −log10 of the molar value.",
  "data": [
    {"system": "WT Mtb Erdman strain", "assay": "Microplate Alamar Blue Assay (MABA), Mtb growth inhibition", "format": "cell-based, Mycobacterium tuberculosis", "details": "Mycobacterium tuberculosis, ERDMAN, 168 h, Middlebrook 7H9 media, 7 days at 37° C. in 5% CO2", "values": [
      {"smiles": "Cc1cc2c(NCCCc3cc4ccccc4s3)nc(C(F)(F)F)nc2s1", "note": "[Example 230, N-(3-(benzo [b]thiophen-2-yl)propyl)-6-methyl-2-(trifluoromethyl) thieno [2,3-d]pyrimidin-4-amine]", "pIC50": 5.60},
      {"smiles": "CCc1nc(NCCCc2ccc(-c3ccc(OC(F)(F)F)cn3)cc2)c2cc(C)sc2n1", "note": "[Example 376, 2-ethyl-6-methyl-N-(3-(4-(5-(trifluoro-methoxy)pyridin-2-yl)phenyl)propyl)thieno [2,3-d]pyrimidin-4-amine]", "pIC50": 7.26},
      {"smiles": "CCOc1nc(NCCCc2ccccc2)c2cc(C)sc2n1", "note": "[Example 543, 2-ethoxy-6-methyl-N-(3-phenylpropyl)thieno[2,3-d]pyrimidin-4-amine]", "pIC50": 6.89},
      {"smiles": "CCc1nc(NCCCc2cccc(Br)c2)c2cc(C)sc2n1", "note": "[Example 202, N-(3-(3-bromophenyl)propyl)-2-ethyl-6-methylthieno[2,3-d]pyrimidin-4-amine]", "pIC50": 6.59},
      {"smiles": "Cc1cc2c(NCCCc3ccc(C4CCCCC4)cc3)nc(C(F)(F)F)nc2s1", "note": "[Example 234, N-(3-(4-cyclohexylphenyl)propyl)-6-methyl-2-(trifluoromethyl) thieno[2,3-d] pyrimidin-4-amine]", "pIC50": 5.74},
      {"smiles": "CCc1nc(N[C@@H]2C[C@H]2c2ccccc2)c2cc(C)sc2n1", "note": "[Example 6, 2-ethyl-6-methyl-N-((1R,2S)-2-phenylcyclopropyl) thieno[2,3-d]pyrimidin-4-amine]", "pIC50": 6.36},
      {"smiles": "CSc1nc(N[C@@H]2C[C@H]2c2ccc(F)c(F)c2)c2cc(C)sc2n1", "note": "[Example 53, N-((1R,2S)-2-(3,4-difluorophenyl)cyclopropyl)-6-methyl-2-(methylthio)thieno[2,3-d]pyrimidin-4-amine]", "pIC50": 6.62},
      {"smiles": "CCc1nc(NCCCc2ccccc2OC)c2cc(C)sc2n1", "note": "[Example 189, 2-ethyl-N-(3-(2-methoxyphenyl)propyl)-6-methylthieno[2,3-d]pyrimidin-4-amine]", "pIC50": 5.55},
      {"smiles": "Cc1cc2c(NCCCc3ccc(-c4ccc([N+](=O)[O-])cc4)cc3)nc(-c3ccoc3)nc2s1", "note": "[Example 328, 2-(furan-3-yl)-6-methyl-N-(3-(4′-nitro-[1,1′-biphenyl]-4-yl)propyl)thieno [2,3-d]pyrimidin-4-amine]", "pIC50": "> 9.00"},
      {"smiles": "Cc1cc2c(NCCCc3ccc(-c4cccnc4)cc3)nc(C(F)(F)F)nc2s1", "note": "[Example 293, 6-methyl-N-(3-(4-(pyridin-3-yl)phenyl)propyl)-2-(trifluoromethyl) thieno [2,3-d]pyrimidin-4-amine]", "pIC50": 5.60},
      {"smiles": "CCOc1nc(NCCCc2ccccc2)c2ccsc2n1", "note": "[Example 542, 2-ethoxy-N-(3-phenylpropyl)thieno[2,3-d]pyrimidin-4-amine]", "pIC50": 6.82},
      {"smiles": "CCc1nc(NCCCc2ccc(-c3ccc(OC4CC4)cc3)cc2)c2cc(C)sc2n1", "note": "[Example 305, N-(3-(4′-cyclopropoxy-[1,1′-biphenyl]-4-yl)propyl)-2-ethyl-6-methylthieno[2,3-d]pyrimidin-4-amine]", "pIC50": 7.24},
      {"smiles": "Cc1cc2c(NCCCc3ccc(-c4ccc(OC(F)(F)F)cc4)cc3)nc(-c3ccc[nH]3)nc2s1", "note": "[Example 567, 6-methyl-2-(1H-pyrrol-2-yl)-N-(3-(4′-(trifluoromethoxy)-[1,1′-biphenyl]-4-yl)propyl)thieno[2,3-d]pyrimidin-4-amine]", "pIC50": "> 8.40"},
      {"smiles": "CCN(CC)c1nc(NCCCc2ccccc2)c2cc(C)sc2n1", "note": "[Example 520, N2,N2-diethyl-6-methyl-N4-(3-phenylpropyl)thieno[2,3-d]pyrimidine-2,4-diamine]", "pIC50": "< 5.00"},
      {"smiles": "Cc1cc2c(NCCCc3ccccc3)nc(N3CC(F)(F)C3)nc2s1", "note": "[Example 511, 2-(3,3-difluoroazetidin-1-yl)-6-methyl-N-(3-phenylpropyl)thieno[2,3-d]pyrimidin-4-amine]", "pIC50": 6.24},
      {"smiles": "Cc1cc2c(NCCCc3ccccc3)nc(Sc3ccccc3)nc2s1", "note": "[Example 154, 6-methyl-N-(3-phenylpropyl)-2-(phenylthio)thieno[2,3-d]pyrimidin-4-amine]", "pIC50": "< 5.00"},
      {"smiles": "COc1nc(N[C@@H]2C[C@H]2c2ccc(F)c(F)c2)c2cc(C)sc2n1", "note": "[Example 151, N-((1R,2S)-2-(3,4-difluorophenyl)cyclopropyl)-2-methoxy-6-methylthieno[2,3-d]pyrimidin-4-amine]", "pIC50": 6.59},
      {"smiles": "Cc1cc2c(NCCCc3ccc(-c4cnc(F)cn4)cc3)nc(Cl)nc2s1", "note": "[Example 469, 2-chloro-N-(3-(4-(5-fluoropyrazin-2-yl)phenyl)propyl)-6-methylthieno[2,3-d]pyrimidin-4-amine]", "pIC50": 6.77},
      {"smiles": "CCc1nc(NCCCc2ccc(-c3ccc(OC(F)(F)F)c(F)c3)cc2)c2cc(C)sc2n1", "note": "[Example 306, 2-ethyl-N-(3-(3′-fluoro-4′-(trifluoromethoxy)-[1,1′-biphenyl]-4-yl)propyl)-6-methylthieno[2,3-d]pyrimidin-4-amine]", "pIC50": 7.33},
      {"smiles": "Cc1cc2c(NCCC(c3ccccc3)c3ccccc3)nc(C(F)(F)F)nc2s1", "note": "[Example 160, N-(3,3-diphenylpropyl)-6-methyl-2-(trifluoromethyl) thieno[2,3-d] pyrimidin-4-amine]", "pIC50": 5.96},
      {"smiles": "COc1ccc(CCCNc2nc(-c3ccoc3)nc3sc(C)cc23)cc1", "note": "[Example 118, 2-(furan-3-yl)-N-(3-(4-methoxyphenyl)propyl)-6-methylthieno[2,3-d]pyrimidin-4-amine]", "pIC50": 7.09},
      {"smiles": "CCc1nc(NCCCc2ccc(N3CCOCC3)cc2)c2cc(C)sc2n1", "note": "[Example 420, 2-ethyl-6-methyl-N-(3-(4-morpholinophenyl)propyl)thieno[2,3-d]pyrimidin-4-amine]", "pIC50": 6.80},
      {"smiles": "Cc1cc2c(NCCCc3ccc(-c4ccnc(C(F)(F)F)c4)cc3)nc(-c3ccoc3)nc2s1", "note": "[Example 324, 2-(furan-3-yl)-6-methyl-N-(3-(4-[2-(trifluoromethyl)pyridin-4-yl]phenyl)propyl) thieno[2,3-d]pyrimidin-4-amine]", "pIC50": 6.80},
      {"smiles": "Cc1cc2c(NCCCc3ccc(OC(F)(F)F)cc3)nc(-c3ccccn3)nc2s1", "note": "[Example 123, 6-methyl-2-(pyridin-2-yl)-N-(3-(4-(trifluoromethoxy)phenyl)propyl)thieno [2,3-d]pyrimidin-4-amine]", "pIC50": 5.74},
      {"smiles": "CCCCSc1nc(N[C@@H]2C[C@H]2c2ccc(F)c(F)c2)c2cc(C)sc2n1", "note": "[Example 87, 2-(butylthio)-N-((1R,2S)-2-(3,4-difluorophenyl)cyclopropyl)-6-methylthieno[2,3-d]pyrimidin-4-amine]", "pIC50": 5.82},
      {"smiles": "Cc1cc2c(NCCCc3ccc(OC(F)(F)F)cc3)nc(Cl)nc2s1", "note": "[Example 223, 2-chloro-6-methyl-N-(3-(4-(trifluoromethoxy)phenyl)propyl) thieno[2,3-d] pyrimidin-4-amine]", "pIC50": 5.77},
      {"smiles": "CC(=O)Nc1nc(NCCCc2ccc(-c3ccc(OC(F)(F)F)cc3)cc2)c2cc(C)sc2n1", "note": "[Example 599, N-(6-methyl-4-((3-(4′-(trifluoromethoxy)-[1,1′-biphenyl]-4-yl)propyl)amino)thieno[2,3-d]pyrimidin-2-yl)acetamide]", "pIC50": "< 6.43"},
      {"smiles": "Cc1cc2c(NCCCc3ccccc3)nc(CCc3ccccc3)nc2s1", "note": "[Example 138, 6-methyl-2-phenethyl-N-(3-phenylpropyl)thieno [2,3-d]pyrimidin-4-amine]", "pIC50": "< 5.00"},
      {"smiles": "Cc1cc2c(NCCCc3ccccc3)nc(C(N)=O)nc2s1", "note": "[Example 96, 6-methyl-4-((3-phenylpropyl)amino) thieno[2,3-d]pyrimidine-2-carboxamide]", "pIC50": 6.89},
      {"smiles": "Cc1cc2c(NCCCc3ccc4ccccc4c3)nc(C(F)(F)F)nc2s1", "note": "[Example 232, 6-methyl-N-(3-(naphthalen-2-yl)propyl)-2-(trifluoromethyl) thieno[2,3-d] pyrimidin-4-amine]", "pIC50": 5.89},
      {"smiles": "CCc1nc(N[C@@H]2C[C@H]2c2ccc(F)c(F)c2)c2cc(C)sc2n1", "note": "[Example 4, N-((1R,2S)-2-(3,4-difluorophenyl)cyclopropyl)-2-ethyl-6-methylthieno[2,3-d]pyrimidin-4-amine]", "pIC50": 6.52},
      {"smiles": "Cc1cc2c(NCCCc3ccccc3)nc(-c3ncco3)nc2s1", "note": "[Example 57, 6-methyl-2-(oxazol-2-yl)-N-(3-phenylpropyl)thieno [2,3-d]pyrimidin-4-amine]", "pIC50": 5.39},
      {"smiles": "Cc1cc2c(NCCCc3ccccc3)nc(NC3CC3)nc2s1", "note": "[Example 522, N2-cyclopropyl-6-methyl-N4-(3-phenylpropyl)thieno[2,3-d]pyrimidine-2,4-diamine]", "pIC50": 5.38},
      {"smiles": "Cc1cc2c(NCCCc3ccc(-c4cccs4)cc3)nc(-c3ccoc3)nc2s1", "note": "[Example 330, 2-(furan-3-yl)-6-methyl-N-(3-[4-(thiophen-2-yl)phenyl]propyl) thieno[2,3-d]pyrimidin-4-amine]", "pIC50": "> 8.30"},
      {"smiles": "Cc1cc2c(NCCCc3ccccc3)nc(-c3cc[nH]n3)nc2s1", "note": "[Example 112, 6-methyl-N-(3-phenylpropyl)-2-(1H-pyrazol-3-yl)thieno[2,3-d]pyrimidin-4-amine]", "pIC50": 5.55},
      {"smiles": "Cc1cc2c(NCCC(C)c3ccccc3)nc(C(F)(F)F)nc2s1", "note": "(centres unmarked) [Example 187, 6-methyl-N-(3-phenylbutyl)-2-(trifluoromethyl) thieno[2,3-d] pyrimidin-4-amine]", "pIC50": 5.04},
      {"smiles": "CCc1nc(NCCCc2ccc(Nc3ccccc3)cc2)c2cc(C)sc2n1", "note": "[Example 590, 2-ethyl-6-methyl-N-(3-(4-(phenylamino)phenyl)propyl)thieno[2,3-d]pyrimidin-4-amine]", "pIC50": 6.28},
      {"smiles": "Cc1cc2c(NCCCc3ccc(-c4ccc(Cl)cc4)cc3)nc(C(F)(F)F)nc2s1", "note": "[Example 282, N-(3-(4′-chloro-[1,1′-biphenyl]-4-yl)propyl)-6-methyl-2-(trifluoromethyl) thieno[2,3-d]pyrimidin-4-amine]", "pIC50": 6.89},
      {"smiles": "Cc1cc2c(NCCCc3ccc(-c4ccc(OC(F)(F)F)cc4)cc3)nc(OCC(F)(F)F)nc2s1", "note": "[Example 596, 6-methyl-2-(2,2,2-trifluoroethoxy)-N-(3-(4′-(trifluoromethoxy)-[1,1′-biphenyl]-4-yl)propyl)thieno[2,3-d]pyrimidin-4-amine]", "pIC50": 7.54},
      {"smiles": "CCc1nc(NCCCOc2ccc(Cl)cc2)c2cc(C)sc2n1", "note": "[Example 69, N-(3-(4-chlorophenoxy)propyl)-2-ethyl-6-methylthieno[2,3-d]pyrimidin-4-amine]", "pIC50": 5.96},
      {"smiles": "Cc1cc2c(NCCCc3ccccc3)nc(N3CCSC3)nc2s1", "note": "[Example 519, 6-methyl-N-(3-phenylpropyl)-2-(thiazolidin-3-yl)thieno[2,3-d]pyrimidin-4-amine]", "pIC50": 6.05}
    ]}
  ]
}
